# In publication PMC11943016, “TBG096 Ameliorates Memory Deficiency in AD Mouse Model via Promoting Neurogenesis and Regulation of Hsc70/HK2/PKM2/LAMP2A Signaling Pathway” (International Journal of Molecular Sciences, 2025):
# What was measured:
# Assay type in all cases: in vivo
# HFD-induced AD mice [1] = experiment: Neurogenesis: NeuN/BrdU double staining in HFD-induced AD mice; conditions: 5 mg/kg, vs HFD-only
# Protocol: In order to investigate the effect of TBG096 on promoting neuronal regeneration, animal experiments were carried out according to the method previously reported. Fifteen 4-week-old ICR male mice purchased from Zhejiang Academy of Medical Sciences (Hangzhou, China) were randomly divided into three groups, namely the (i) normal control group, (ii) HFD group, and (iii) HFD + TBG096 5 mg/kg group, and given a normal diet or high-fat diet for two months to construct the AD mouse model, respectively. After confirming the successful construction of the AD model, TBG096 was administered once a day at a dose of 5 mg/kg for 1 month, and soybean oil was used as a vehicle. BrdU was then injected into the mice at a dose of 100 mg/kg in four injections over two days, each 12 h apart. Administration of TBG096 was continued for 28 days. At the end of animal experiments, the mice were anesthetized and cardiac […]. The brains of mice were taken, fixed, and sectioned, and immunostaining was performed with NeuN and BrdU antibodies.
# At the end of animal experiments, three mice in each group were taken for heart perfusion with cold PBS and 4% paraformaldehyde. After that, the brains of mice were fixed with 4% paraformaldehyde for 24 h and gradually dehydrated with 15% and 30% sucrose solutions for 48 h, respectively. […]
# gut microbiota = experiment: Gut microbiota analysis in HFD-induced AD mice; conditions: Met 140 mg/kg
# From the text: (§1) In experiments with the HFD-induced AD mouse model, a total of 60 Institute of Cancer Research (ICR) male mice aged 4 weeks from Zhejiang Academy of Medical Sciences (Hangzhou, China) were used for animal experiments (permit number: ZJU20230121). The animals were provided free access to a chow diet and water. […] The HFD and normal diet were alternated every two days to maintain freshness. Weekly measurements were taken for water intake, food intake, and body weight. In the eighteenth week, the mice underwent Y-maze and NOR tests. The Morris water maze test was conducted during the nineteenth week. After confirming the successful establishment of the AD model characterized by cognitive impairment, oral administration of treatments commenced. […] Each group had 10 mice.
# HFD-induced AD mice [2] = experiment: Immunofluorescence staining of brain tissue of HFD-induced AD mice
# From the text: as §1
# At the end of animal experiments, three mice in each group were taken for heart perfusion with cold PBS and 4% paraformaldehyde. After that, the brains of mice were fixed with 4% paraformaldehyde for 24 h and gradually dehydrated with 15% and 30% sucrose solutions for 48 h, respectively. The fixed and embedded brain sample was placed in a cryostat and cut into 20 µm thick slices with a cryostat (Thermo Fisher, Waltham, MA, USA), and brain slices in the hippocampus and cortex were collected. Finally, the brain slices were placed in antifreeze (glycerol/ethylene/PBS = 3:3:4) and kept in a refrigerator at −30 °C until immunostaining. The brain slices were fixed on a glass slide and hydrated with PBS for 5 min. Then, blocking buffer was added to the brain slices and incubated at room temperature for 1 h. Brain slices were washed twice with PBS and incubated with anti-NeuN, anti-BrdU, anti-Iba1, anti-GFAP, anti-INOS, anti-APP, or anti-p-Tau at 4 °C for 24 h, respectively. Subsequently, the brain slices were incubated with secondary antibody (goat anti-rabbit IgG H&L (Alexa Fluor® 488) or rabbit anti-mouse IgG (Cy3 conjugate)) at room temperature for 2 h after washing with PBS three times. Finally, a cover glass was used to lightly cover the slices stained with DAPI. […] Biomarker proteins in the cerebral cortex and hippocampus were digitized by Image J software (National Institutes of Health, Bethesda, MD, USA).
structure (smiles),measurement,setting,value
O=C(SCCCCCCSCCCC(F)(F)F)c1cccc(O)c1O [TBG096],number of NeuN+ and BrdU+ neurons in the cerebral cortex,HFD-induced AD mice [1],increased numbers
same,number of newborn neurons in the hippocampus,HFD-induced AD mice [1],elevated
same,abundance of Firmicutes (decreased by HFD) and Bacteroidota (increased by HFD),gut microbiota; TBG096 20 mg/kg,reversed
same,abundance of Ligilactobacillus,gut microbiota; TBG096 5 and 20 mg/kg,improved
same,APP and phosphorylation Tau protein in the hippocampus,HFD-induced AD mice [2]; immunofluorescence,reduction
same,"Iba1, GFAP, INOS markers (activated microglia, astrocytes, M1 macrophages) in the hippocampus",HFD-induced AD mice [2]; vs HFD-only,significantly reduced
same,number of mature neurons (NeuN) in the cerebral cortex,HFD-induced AD mice [2]; vs HFD-only group,increased numbers of mature neurons
